Assay results: patent publication US6593362B2, “Non-peptidic cyclophilin binding compounds and their use” (Guilford Pharmaceuticals Inc., priority 2001, dated 2003)

Key:
CyP A = CyP A (Homo sapiens, UniProt P62937); assay: biochemical; details: for inhibition at 10 µM: read-out: % Inhibition at 10 μM
Description: A number of substrates for rotamase are known in the art or can be derived from those known. Typically, the substrate contacts a sample containing a protein with rotamase activity and the conversion of the substrate is detected after a period of time. The method for detecting conversion of the substrate will vary with the particular substrate chosen.
The following were added to a plastic cuvette: […] of ice cold assay buffer (25 mM HEPES, pH 7.8, 100 mM NaCl), 10 μL of CyP A (2.5 μM in 10 mM Tris-Cl pH 7.5, 100 mM NaCl, 1 mM dithiothreitol), 25 μL of chymotrypsin (50 mg/ml in 1 mM HCl), and 10 μL of test compound, at various concentrations, in dimethyl sulfoxide. The reaction was initiated by the addition of 5 μL of substrate (succinyl-Ala-Phe-Pro-Phe-para-nitroanilide, 5 mg/mL in 470 mM LiCl in trifluoroethanol). The absorbance at 390 nm versus time was monitored for 90 seconds using a spectrophotometer.
While CyP A is used in these examples, other CyP proteins can be substituted.

ventral horn motoneurons = assay: Neuroprotection assay, THA-treated organotypic spinal cord slice cultures; format: cell-based; details: THA 200 μM + compound 10 μM, rat spinal cord slice cultures, FIGS. 1-6
Description: For each of FIGS. 1-6, the bar graphs represent the number of viable neurons after a specified treatment regimen employed in a neuroprotective activity assay. The cells of the experiments were treated with a control solution, a neurotoxic solution, and neurotoxic+experimental compound solution. The statistical significance, p, is calculated using the standard 2 tailed Student's t test.
Protection of cells from calcium-related physiological stress can be assessed in a neuroprotection assay. Organotypic slice cultures of rat spinal cord tissue display a protracted loss of ventral horn motoneurons when exposed to the glutamate uptake inhibitor THA. […] Each experiment consisted of two 6-well plates with 5 slices from 4 different animals per well. Media changes were performed every 3 to 4 days. […] The control was an untreated sample with 0.1% DMSO as vehicle. The THA control was a THA treated sample with 0. 1% DSMO as vehicle. Two wells were used per condition. One media change with new THA and compounds was performed. The experiment was stopped 6 to 8 days following drug treatment (13-15 total days in vitro, DIV) as dictated by visual assessment of lesion, by fixation with 4% paraformaldehyde/0.1 M phosphate buffer for 30 minutes. Slices were permeabilized with 100% cold methanol for 10 minutes. Slices were transferred to staining wells. The slices were blocked with 10% horse serum/TBS. Primary antibody incubation was overnight at 4° C. with SMI-32 antibody 1:5000 in 2% horse serum/TBS. SMI-32 is specific towards the unphosphorylated H neurofilament subunit, and was here utilized as a marker for ventral horn motoneurons. A Vectastain ABC Elite Kit with rat absorbed anti-mouse secondary antibody was used with DAB to stain the slices. The slices were mounted under DPX mounting solution for microscopy.
Quantification of surviving neurons was performed on a Zeiss Axiovert microscope. Neuronal survival was determined by observing an intact neuronal cell body with processes located ventrally of the central canal in each hemisphere. This correlated to laminae VII, VIII and IX. Each hemisphere was counted individually. The statistics were performed with StatView software on a minimum of three different experiments per condition and significance was determined as compared to THA control. The percent of protection was determined from the average number of living neurons by the following equation: (drug treatment condition —THA control)/(Untreated control-THA control).

neuronal cells = assay: Neurotrophic or neuroprotectant activity (assay not specified); format: cell-based
Text: In general, activity in the nervous system for a particular compound can be identified by assaying for the ability to promote neurite outgrowth, protect neurons from damage by chemical treatments, promote the growth of neurons or neuronal cells, recover lost or damaged motor, functional or cognitive ability associated with nervous tissue or organs of the nervous system, or regenerate neurons. These activities can be useful in treating, diagnosing, or prognosing a number of human disease conditions, including, but not limited to, Parkinson's disease, Alzheimer's disease, amyotrophic lateral sclerosis (ALS), traumatic injury, spinal cord injury, multiple sclerosis, diabetic neuropathy, neuropathy associated with medical treatments such as chemotherapy, ischemia or ischemia-induced injury, stroke, oxygen deprivation, retinopathies, peripheral neuropathies, and neuropathies associated with viral infection.
Preferred methods for detecting neuronal activity include a neuroprotective assay, in which a compound is tested for the ability to protect against treatment causing glutamate neurotoxicity. Sensory neuronal cultures (DRG) can also be assayed for neurite outgrowth, an assay for neurotrophic activity. […] Immunohistochemistry can aid in the visualization and quantitation of neurites as compared to control.

Sequence of CyP A (P62937 whole entry): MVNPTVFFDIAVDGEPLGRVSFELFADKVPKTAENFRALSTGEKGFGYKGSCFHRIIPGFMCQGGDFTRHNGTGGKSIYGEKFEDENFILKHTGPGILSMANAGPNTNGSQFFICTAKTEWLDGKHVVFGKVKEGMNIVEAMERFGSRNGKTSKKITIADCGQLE

Row | Compound | inhibition at 10 µM (CyP A) | IC50 (CyP A) | other results
1 | O=C(Nc1cccc(NC(=O)N(c2ccccc2)c2ccccc2)c1)N(c1ccccc1)c1ccccc1 [Compound 22] | 100% |  | 
2 | COc1cccc(NC(=O)NC2CCCC(NC(=O)Nc3cccc(OC)c3)C2)c1 (centres unmarked) [Compound 12] | 47.7% | 9.5 µM | neuroprotective activity (number of viable neurons) (ventral horn motoneurons): displays neuroprotective activity
3 | O=C(NCC1CCCC(CNC(=O)Nc2cc(Br)cc(Br)c2)C1)Nc1cc(Br)cc(Br)c1 (centres unmarked) [Compound 26] | 100% |  | 
4 | O=C(NCc1cccc2ccccc12)c1cccc(NC(=O)c2cc(Cl)cc(Cl)c2)c1 [Compound 16, {3-[(3,5-dichlorophenyl)carbonylamino]phenyl}-N-(naphthylmethyl) formamide] | 100% |  | melting point: 205 to 208 °C
5 | O=C(Nc1cccc(S(=O)(=O)NC(c2ccccc2)c2ccccc2)c1)c1cc(Cl)cc(Cl)c1 [Compound 18] | 100% | 0.52 µM | 
6 | O=C(NCC1CCCC(CNC(=O)Nc2cc(Cl)cc(Cl)c2)C1)Nc1cc(Cl)cc(Cl)c1 (centres unmarked) [Compound 25] | 100% |  | 
7 | O=C(Nc1cc(Cl)cc(Cl)c1)Nc1cccc(NC(=O)Nc2cc(Cl)cc(Cl)c2)c1 [Compound 28] | 100% |  | 
8 | O=C(Nc1cccc(NC(=O)Nc2ccon2)c1)Nc1ccon1 [Compound 11] | 93% | 4 µM | neuroprotective activity (number of viable neurons) (ventral horn motoneurons): displays neuroprotective activity
9 | O=C(NCc1cccc(CNC(=O)Nc2cc(Cl)cc(Cl)c2)c1)Nc1cc(Cl)cc(Cl)c1 [Compound 30] | 88% |  | 
10 | O=S(=O)(Nc1cccc(OCCc2cccc3ccccc23)c1)c1cccc2ccccc12 [Compound 13] | 100% | 0.83 µM | melting point: 165 to 167 °C
11 | O=C(Nc1cccc(NC(=O)Nc2ccc(Br)cc2Br)c1)Nc1ccc(Br)cc1Br [Compound 29] | 89% |  | 
12 | O=C(Nc1ccccc1)Nc1cc(NC(=O)Nc2ccccc2)cc(C(F)(F)F)c1 [Compound 7] | 100% |  | neurotrophic or neuroprotectant activity (neuronal cells): possess neurotrophic or neuroprotectant activity
13 | CSc1ccc(Cl)cc1C(=O)Nc1cccc(NC(=O)c2cc(Cl)ccc2SC)c1 [Compound 6] | 100% |  | neurotrophic or neuroprotectant activity (neuronal cells): possess neurotrophic or neuroprotectant activity
14 | CN(C)c1ccc(NC(=O)Nc2cc(NC(=O)Nc3ccc(N(C)C)cc3)c(Br)cc2Br)cc1 [Compound 19] | 98% | 2.9 µM | 
15 | NC(=O)c1ccccc1NC(=O)Nc1cc(NC(=O)Nc2ccccc2C(N)=O)c(Br)cc1Br [Compound 1] | 100% |  | 
16 | cyclosporin A [CsA, reference compound] |  |  | neuroprotective activity (number of viable neurons) (ventral horn motoneurons): maintains neuronal viability
17 | O=C(Nc1ccc(I)cc1)Nc1cc(NC(=O)Nc2ccc(I)cc2)c(Br)cc1Br [Compound 3] |  | 0.6 µM | neuroprotective activity (number of viable neurons) (ventral horn motoneurons): displays neuroprotective activity
18 | O=C(NCc1cccc2ccccc12)Nc1cccc(NC(=O)NCc2cccc3ccccc23)c1 [Compound 21] | 100% |  | 
19 | O=C(Nc1cccc(S(=O)(=O)NC(c2ccccc2)c2ccccc2)c1)C(c1ccccc1)c1ccccc1 [Compound 17] | 99% | 0.65 µM | 
20 | Cc1ccc(NC(=O)Nc2cccc(NC(=O)Nc3ccc(C)cc3C)c2)c(C)c1 [Compound 27] | 100% |  | 
21 | O=C(Nc1cc(Cl)cc(Cl)c1)c1cccc(C(=O)Nc2cc(Cl)cc(Cl)c2)c1 [Compound 14] | 100% |  | 
22 | Cc1ccc(NC(=O)N(Cc2ccccc2)Cc2ccccc2)cc1NC(=O)N(Cc1ccccc1)Cc1ccccc1 [Compound 4] | 100% | 0.8 µM | neuroprotective activity (number of viable neurons) (ventral horn motoneurons): displays neuroprotective activity
23 | O=C(Nc1ccc(Br)cc1Br)NC1CCCC(NC(=O)Nc2ccc(Br)cc2Br)C1 (centres unmarked) [Compound 24] | 100% |  | 
24 | O=C(NCc1cccc(CNC(=O)Nc2ccc(Br)cc2Br)c1)Nc1ccc(Br)cc1Br [Compound 31] | 100% |  | 
25 | O=C(Nc1cc(Cl)cc(Cl)c1)NC1CCCC(NC(=O)Nc2cc(Cl)cc(Cl)c2)C1 (centres unmarked) [Compound 23] | 100% |  | 
26 | O=C(Nc1cccc2ccccc12)NC1CCCC(NC(=O)Nc2cccc3ccccc23)C1 (centres unmarked) [Compound 10] |  | 4.5 µM | 
